From ChEMBL document CHEMBL5241065, “If small molecules immunotherapy comes, can the prime be far behind?” (Eur J Med Chem, 2021)
Blank lines part the entries; values can stand above or below the molecule they belong to.

Assays:
Arginase-1 [1] = target: T1, Arginase-1 (Mus musculus, UniProt Q61176); experiment: Inhibition of mouse ARG1
T1 sequence (Q61176 whole entry): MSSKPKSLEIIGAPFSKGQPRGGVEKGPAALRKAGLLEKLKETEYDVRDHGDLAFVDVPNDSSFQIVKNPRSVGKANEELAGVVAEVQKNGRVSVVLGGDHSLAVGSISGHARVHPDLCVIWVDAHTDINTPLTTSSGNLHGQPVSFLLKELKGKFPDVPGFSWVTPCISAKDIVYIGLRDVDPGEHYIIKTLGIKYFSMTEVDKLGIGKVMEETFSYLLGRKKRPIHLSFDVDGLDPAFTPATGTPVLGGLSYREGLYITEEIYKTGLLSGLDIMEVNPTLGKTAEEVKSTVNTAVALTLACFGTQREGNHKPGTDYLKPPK

[2] = target: T2, Tyrosine-protein phosphatase non-receptor type 11 (Homo sapiens, UniProt Q06124)
T2 sequence (Q06124 whole entry): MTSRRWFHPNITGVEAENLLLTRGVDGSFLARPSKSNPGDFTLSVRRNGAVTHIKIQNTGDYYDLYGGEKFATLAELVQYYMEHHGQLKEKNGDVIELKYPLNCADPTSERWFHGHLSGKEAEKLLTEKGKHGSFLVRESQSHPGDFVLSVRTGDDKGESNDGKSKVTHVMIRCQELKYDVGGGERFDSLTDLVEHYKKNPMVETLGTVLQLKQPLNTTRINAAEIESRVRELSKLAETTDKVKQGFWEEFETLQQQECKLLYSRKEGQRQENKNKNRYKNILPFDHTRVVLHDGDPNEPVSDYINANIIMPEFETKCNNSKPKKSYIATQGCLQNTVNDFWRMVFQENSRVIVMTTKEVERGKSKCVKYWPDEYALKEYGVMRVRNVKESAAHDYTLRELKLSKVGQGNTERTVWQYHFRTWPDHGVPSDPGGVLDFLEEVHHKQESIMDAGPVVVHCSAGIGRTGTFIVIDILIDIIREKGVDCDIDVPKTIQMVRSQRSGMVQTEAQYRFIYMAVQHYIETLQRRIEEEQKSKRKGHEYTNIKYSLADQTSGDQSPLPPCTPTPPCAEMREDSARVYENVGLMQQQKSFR

[3] = target: T2, Tyrosine-protein phosphatase non-receptor type 11; experiment: Inhibition of SHP (unknown origin)
[4] = target: T2, Tyrosine-protein phosphatase non-receptor type 11; experiment: Inhibition of SHP2 (unknown origin) at 100 mg/mL
[5] = target: T3, Phosphatidylinositol 3,4,5-trisphosphate 5-phosphatase 1 (Homo sapiens, UniProt Q92835); experiment: Inhibition of SHIP1 (unknown origin)
T3 sequence (Q92835 whole entry): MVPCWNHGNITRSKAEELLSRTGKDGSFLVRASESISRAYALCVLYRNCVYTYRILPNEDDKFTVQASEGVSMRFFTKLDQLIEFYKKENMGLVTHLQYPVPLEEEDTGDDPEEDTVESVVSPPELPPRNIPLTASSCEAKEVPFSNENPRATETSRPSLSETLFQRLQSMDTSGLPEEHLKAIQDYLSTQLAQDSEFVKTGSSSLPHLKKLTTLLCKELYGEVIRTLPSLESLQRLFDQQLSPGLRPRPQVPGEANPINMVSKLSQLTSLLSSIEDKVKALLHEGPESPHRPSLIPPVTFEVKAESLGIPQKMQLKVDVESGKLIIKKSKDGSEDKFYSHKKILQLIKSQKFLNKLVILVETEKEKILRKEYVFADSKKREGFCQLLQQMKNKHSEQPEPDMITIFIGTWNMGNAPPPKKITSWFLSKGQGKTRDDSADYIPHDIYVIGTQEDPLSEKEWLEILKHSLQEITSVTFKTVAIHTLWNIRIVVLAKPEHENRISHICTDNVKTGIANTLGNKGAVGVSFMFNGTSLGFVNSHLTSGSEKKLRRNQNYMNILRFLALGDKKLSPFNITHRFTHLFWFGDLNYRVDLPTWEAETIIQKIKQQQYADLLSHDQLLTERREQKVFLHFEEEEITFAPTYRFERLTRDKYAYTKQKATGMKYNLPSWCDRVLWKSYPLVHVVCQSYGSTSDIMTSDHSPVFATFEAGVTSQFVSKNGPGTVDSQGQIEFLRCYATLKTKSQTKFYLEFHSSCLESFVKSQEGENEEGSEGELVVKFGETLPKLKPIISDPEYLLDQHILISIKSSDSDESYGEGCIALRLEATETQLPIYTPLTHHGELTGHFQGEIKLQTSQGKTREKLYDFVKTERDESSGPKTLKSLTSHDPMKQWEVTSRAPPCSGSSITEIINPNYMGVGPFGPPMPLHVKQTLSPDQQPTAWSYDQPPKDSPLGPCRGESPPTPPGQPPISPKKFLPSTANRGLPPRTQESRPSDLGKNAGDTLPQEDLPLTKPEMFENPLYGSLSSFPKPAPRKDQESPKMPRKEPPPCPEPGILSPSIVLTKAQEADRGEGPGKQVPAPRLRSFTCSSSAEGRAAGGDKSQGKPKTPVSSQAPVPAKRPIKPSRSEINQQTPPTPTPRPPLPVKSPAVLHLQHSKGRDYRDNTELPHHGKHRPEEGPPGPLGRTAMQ

[6] = target: T2, Tyrosine-protein phosphatase non-receptor type 11; remark: listed apart in the source
[7] = target: T4, Tyrosine-protein phosphatase non-receptor type 1 (Homo sapiens, UniProt P18031)
T4 sequence (P18031 whole entry): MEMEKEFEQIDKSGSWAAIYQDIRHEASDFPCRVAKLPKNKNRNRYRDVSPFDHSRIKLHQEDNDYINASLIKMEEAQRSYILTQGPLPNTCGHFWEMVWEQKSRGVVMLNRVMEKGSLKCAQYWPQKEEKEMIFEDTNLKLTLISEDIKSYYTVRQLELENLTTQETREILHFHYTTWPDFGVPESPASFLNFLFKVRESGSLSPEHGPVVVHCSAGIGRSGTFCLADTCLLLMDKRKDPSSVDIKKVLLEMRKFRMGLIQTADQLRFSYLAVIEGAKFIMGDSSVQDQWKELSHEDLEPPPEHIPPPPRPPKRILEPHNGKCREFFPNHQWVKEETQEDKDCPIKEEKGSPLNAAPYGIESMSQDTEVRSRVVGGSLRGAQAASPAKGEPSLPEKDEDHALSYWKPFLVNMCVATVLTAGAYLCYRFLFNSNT

[8] = target: Tyrosine-protein phosphatase non-receptor type 6 (Homo sapiens, UniProt P29350)
Arginase-1 [9] = target: T5, Arginase-1 (Homo sapiens, UniProt P05089); experiment: Inhibition of recombinant human ARG1 expressed in Escherichia coli using L-arginine hydrochloride as substrate incubated for 1 hr by colorimetric assay
T5 sequence (P05089 whole entry): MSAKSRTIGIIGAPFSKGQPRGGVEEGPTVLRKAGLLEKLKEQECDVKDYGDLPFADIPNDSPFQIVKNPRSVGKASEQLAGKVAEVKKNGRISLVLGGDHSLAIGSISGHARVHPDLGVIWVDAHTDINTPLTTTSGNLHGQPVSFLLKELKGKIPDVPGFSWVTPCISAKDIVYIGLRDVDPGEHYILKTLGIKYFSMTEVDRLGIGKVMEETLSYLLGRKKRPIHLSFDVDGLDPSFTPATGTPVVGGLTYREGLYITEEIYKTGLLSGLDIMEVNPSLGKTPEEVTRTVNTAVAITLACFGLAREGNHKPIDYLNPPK

[10] = target: T6, Arginase-2, mitochondrial (Homo sapiens, UniProt P78540)
T6 sequence (P78540 whole entry): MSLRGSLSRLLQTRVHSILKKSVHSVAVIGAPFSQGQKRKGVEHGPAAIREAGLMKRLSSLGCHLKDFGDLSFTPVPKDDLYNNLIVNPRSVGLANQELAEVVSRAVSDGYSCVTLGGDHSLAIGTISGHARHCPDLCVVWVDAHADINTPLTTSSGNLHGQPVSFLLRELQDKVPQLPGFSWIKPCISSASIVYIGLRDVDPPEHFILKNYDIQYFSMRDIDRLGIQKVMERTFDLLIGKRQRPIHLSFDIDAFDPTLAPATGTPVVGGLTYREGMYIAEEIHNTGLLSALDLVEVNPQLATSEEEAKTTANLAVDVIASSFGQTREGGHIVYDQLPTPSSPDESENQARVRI

Arginase-1 [11] = target: T5, Arginase-1
[12] = target: Stimulator of interferon genes protein (Homo sapiens, UniProt Q86WV6); experiment: Agonist activity at STING in human THP1-Dual cells assessed as increase in IFN-beta secretion incubated for 24 hrs; assay type: cell-based, THP-1
[13] = target: T2, Tyrosine-protein phosphatase non-receptor type 11; remark: listed apart in the source
[14] = target: Tyrosine-protein phosphatase non-receptor type 11 (Homo sapiens, UniProt Q06124, E76K); experiment: Inhibition of SHP2 (unknown origin) E76K mutant
[15] = target: T6, Arginase-2, mitochondrial; experiment: Inhibition of recombinant human ARG2 expressed in Escherichia coli using L-arginine hydrochloride as substrate incubated for 1 hr by colorimetric assay
[16] = target: Programmed cell death 1 ligand 1 (Homo sapiens, UniProt Q9NZQ7)
Sequence of Programmed cell death 1 ligand 1 (Q9NZQ7 whole entry): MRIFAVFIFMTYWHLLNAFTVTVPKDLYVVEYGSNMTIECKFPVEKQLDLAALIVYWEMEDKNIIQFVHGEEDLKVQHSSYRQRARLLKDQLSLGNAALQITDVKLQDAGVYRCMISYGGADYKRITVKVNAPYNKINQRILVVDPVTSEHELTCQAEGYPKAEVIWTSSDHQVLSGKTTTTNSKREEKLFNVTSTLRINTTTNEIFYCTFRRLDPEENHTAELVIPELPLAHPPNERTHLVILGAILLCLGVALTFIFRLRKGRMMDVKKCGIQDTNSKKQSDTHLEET

Sequence of Tyrosine-protein phosphatase non-receptor type 6 (P29350 whole entry): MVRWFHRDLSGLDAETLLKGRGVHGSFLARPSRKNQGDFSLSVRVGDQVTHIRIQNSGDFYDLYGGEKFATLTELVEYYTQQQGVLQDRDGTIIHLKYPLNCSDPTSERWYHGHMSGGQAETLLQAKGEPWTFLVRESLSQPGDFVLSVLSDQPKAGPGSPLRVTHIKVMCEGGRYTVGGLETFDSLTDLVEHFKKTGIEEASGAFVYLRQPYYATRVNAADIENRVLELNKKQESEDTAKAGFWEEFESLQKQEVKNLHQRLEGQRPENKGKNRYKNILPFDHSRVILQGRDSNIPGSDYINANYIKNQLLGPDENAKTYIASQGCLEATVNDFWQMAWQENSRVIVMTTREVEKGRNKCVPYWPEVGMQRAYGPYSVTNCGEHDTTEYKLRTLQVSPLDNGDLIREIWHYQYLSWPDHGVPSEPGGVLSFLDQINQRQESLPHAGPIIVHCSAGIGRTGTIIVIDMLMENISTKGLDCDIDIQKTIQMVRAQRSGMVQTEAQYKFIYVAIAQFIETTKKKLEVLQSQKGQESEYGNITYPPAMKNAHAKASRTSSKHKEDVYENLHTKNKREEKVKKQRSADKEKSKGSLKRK
Sequence of Stimulator of interferon genes protein (Q86WV6 whole entry): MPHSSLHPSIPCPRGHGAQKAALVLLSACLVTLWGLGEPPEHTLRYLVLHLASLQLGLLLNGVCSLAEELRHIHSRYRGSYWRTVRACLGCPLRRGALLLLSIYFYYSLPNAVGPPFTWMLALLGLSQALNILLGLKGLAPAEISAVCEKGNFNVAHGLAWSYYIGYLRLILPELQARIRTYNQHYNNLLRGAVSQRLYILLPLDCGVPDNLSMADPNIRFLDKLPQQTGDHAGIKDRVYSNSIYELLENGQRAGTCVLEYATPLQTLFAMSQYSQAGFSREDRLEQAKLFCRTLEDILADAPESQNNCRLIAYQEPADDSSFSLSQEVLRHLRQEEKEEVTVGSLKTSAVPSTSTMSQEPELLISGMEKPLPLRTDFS
Sequence of Tyrosine-protein phosphatase non-receptor type 11 (Homo sapiens, UniProt Q06124, E76K) (Q06124 2-593 E76K limits assumed): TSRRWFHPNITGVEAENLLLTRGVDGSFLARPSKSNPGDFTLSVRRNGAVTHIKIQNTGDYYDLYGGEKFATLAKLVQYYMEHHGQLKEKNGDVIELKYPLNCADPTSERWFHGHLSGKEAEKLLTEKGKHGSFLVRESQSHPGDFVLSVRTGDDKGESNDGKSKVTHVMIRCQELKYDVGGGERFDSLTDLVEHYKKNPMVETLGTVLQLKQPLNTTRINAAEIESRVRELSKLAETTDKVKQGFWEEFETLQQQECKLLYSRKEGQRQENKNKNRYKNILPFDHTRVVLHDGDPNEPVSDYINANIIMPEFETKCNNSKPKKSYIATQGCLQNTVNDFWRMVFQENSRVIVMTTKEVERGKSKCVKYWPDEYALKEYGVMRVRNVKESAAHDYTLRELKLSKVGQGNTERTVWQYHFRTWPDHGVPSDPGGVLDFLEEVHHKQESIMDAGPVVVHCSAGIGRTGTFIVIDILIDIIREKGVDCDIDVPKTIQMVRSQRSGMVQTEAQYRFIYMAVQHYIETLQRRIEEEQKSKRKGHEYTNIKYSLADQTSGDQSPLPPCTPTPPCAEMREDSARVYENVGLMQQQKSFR

IC50 (Arginase-1 [1]): 11.2 µM
Structure (SMILES): OC[C@H]1O[C@H](Oc2cc(/C=C/c3cc(O)cc(O)c3)ccc2O)[C@H](O)[C@@H](O)[C@@H]1O

IC50 [2]: 0.023 µM
IC50 [3]: 0.023 µM
Structure (SMILES): C[C@@H]1OCC2(CCN(c3nc(N)c(Sc4cccnc4C(F)(F)F)c(=O)n3O)CC2)[C@@H]1N

IC50 [4]: > 100 µM
Structure (SMILES): COC(=O)c1cccc(N/N=C2\C(=O)Nc3ccc(S(=O)(=O)NCc4ccc(F)cc4)cc32)c1

IC50 [5]: 2.5 µM
Structure (SMILES): CC(C)CCC[C@@H](C)[C@H]1CC[C@H]2[C@]3(C)CC[C@H]4C[C@H](N)CC[C@]4(C)[C@H]3CC[C@@]21C

IC50 [6]: 0.63 µM
IC50 [7]: 19 µM
IC50 [8]: 1.8 µM
Structure (SMILES): CCOC(=O)c1ccc(N2NC(c3ccc([N+](=O)[O-])cc3)/C(=N/Nc3ccc(S(=O)(=O)O)cc3)C2=O)cc1 (centres undefined)

IC50 (Arginase-1 [9]): 0.509 µM
Structure (SMILES): N[C@](CCCCB(O)O)(CCN1CCCCC1)C(=O)O

IC50 [10]: 0.0085 µM
IC50 (Arginase-1 [11]): 0.005 µM
Structure (SMILES): N[C@@H](CCCCB(O)O)C(=O)O

EC50 [12]: 0.13 µM
Structure (SMILES): CCn1nc(C)cc1C(=O)/C=C1\Nc2cc(C(N)=O)cc(CCCN3CCOCC3)c2N1C/C=C/CN1/C(=C/C(=O)c2cc(C)nn2CC)Nc2cc(C(N)=O)cc(OC)c21

IC50 [6]: 5.5 µM
IC50 [7]: 2.1 µM
IC50 [8]: 15.7 µM
Structure (SMILES): Cn1cc(-c2cn(CC(=O)Nc3nc4ccccc4s3)nn2)c2cc(C(=O)O)c(O)cc21

IC50 [6]: 47 µM
IC50 [13]: 47 µM
Structure (SMILES): O=C1Nc2cc(S(=O)(=O)O)ccc2C1/N=N/c1ccccc1[N+](=O)[O-] (centres undefined)

IC50 [14]: 7.67 µM
IC50 [2]: 0.0098 µM
Structure (SMILES): CCOc1cc(O)c(C(=O)/C=C/c2ccc(Cl)cc2Cl)cc1CN1CCC=C(C2C(=O)Nc3ccccc32)C1 (centres undefined)

IC50 [7]: 14.3 µM
IC50 [8]: 0.335 µM
Structure (SMILES): O=S(=O)(O)c1ccc2cc(/N=N/c3cc(S(=O)(=O)O)c4cccnc4c3O)ccc2c1

IC50 (Arginase-1 [9]): 0.086 µM
IC50 [15]: 0.296 µM
Structure (SMILES): NC(CCCCB(O)O)(C(=O)O)C1CCN(Cc2ccc(Cl)cc2Cl)CC1 (centres undefined)

Structure (SMILES): N#Cc1cncc(COc2cc(OC3CCc4c(-c5ccccc5)cccc43)c(Cl)cc2CN[C@@H](CO)C(=O)O)c1 (some centres undefined)
IC50 [16]: < 0.1 µM
